Reference: patent US20240083857A1, “2-Methyl-Quinazolines” (Bayer Pharma Aktiengesellschaft, priority 2017, published 2024)

Key:
[1] = target: K-Ras^G12C : hSOS1 interaction (Homo sapiens, UniProt Q07889); experiment: Biochemical assay 1: K-Ras^G12C interaction assay with hSOS1 (HTRF); type: binding; conditions: read-out: Assay 1 (KRAS-SOS Interaction) activity expressed as IC50
[2] = target: human SOS1 (nucleotide exchange of K-Ras^G12C) (Homo sapiens, UniProt Q07889); experiment: Biochemical assay 2: K-Ras^G12C activation assay by hSOS1 at high GTP concentration (HTRF); conditions: high GTP; for IC50: read-out: Assay 2 (KRAS-Activation by SOS high GTP) activity expressed as IC50; for inhibition at 20 µM: read-out: Assay 2 (KRAS-Activation by SOS high GTP) activity expressed as % inhibition at 20 μM
[3] = target: human SOS1 (loading of human K-Ras^G12C-GDP with fluorescent GTP-analog) (Homo sapiens, UniProt Q07889); experiment: Biochemical assay 3: K-Ras^G12C activation assay by hSOS1 (HTRF); conditions: no GTP; for IC50: read-out: Assay 3 (KRAS-Activation by SOS no GTP) activity expressed as IC50; for inhibition at 20 µM: read-out: Assay 3 (KRAS-Activation by SOS no GTP) activity expressed as % inhibition at 20 μM

SMILES	IC50 [1]	IC50 [2]	IC50 [3]	inhibition at 20 µM [2]	inhibition at 20 µM [3]
COc1cc2nc(C)nc(N[C@H](C)c3cccc(-c4ccc5[nH]ccc5c4)c3)c2cc1OC [Example 85, N-{(1R)-1-[3-(1H-indol-5-yl)phenyl]ethyl}-6,7-dimethoxy-2-methylquinazolin-4-amine]	0.687 µM	0.756 µM	1.26 µM		
COc1cc2nc(C)nc(N[C@H](C)c3cccc(-c4ccoc4)c3)c2cc1OC [Example 86, N-{(1R)-1-[3-(furan-3-yl)phenyl]ethyl}-6,7-dimethoxy-2-methylquinazolin-4-amine]	0.581 µM	0.935 µM	0.693 µM		
COc1cc2nc(C)nc(N[C@H](C)c3cccc(-c4csc5ccccc45)c3)c2cc1OC [Example 87, N-{(1R)-1-[3-(1-benzothiophen-3-yl)phenyl]ethyl}-6,7-dimethoxy-2-methylquinazolin-4-amine]	4.42 µM	3.46 µM	7.42 µM		
COc1cc2nc(C)nc(N[C@H](C)c3cccc(-c4cc5ccccc5n4C)c3)c2cc1OC [Example 88, 6,7-dimethoxy-2-methyl-N-{(1R)-1-[3-(1-methyl-1H-indol-2-yl)phenyl]ethyl}quinazolin-4-amine]	3.56 µM	2.56 µM	6.18 µM		
CCC/C=C/c1cccc([C@@H](C)Nc2nc(C)nc3cc(OC)c(OC)cc23)c1 [Example 89, 6,7-dimethoxy-2-methyl-N-[(1R)-1-{3-[(1E)-pent-1-en-1-yl]phenyl}ethyl]quinazolin-4-amine]	1.68 µM	2.68 µM	4.26 µM		
COc1cc2nc(C)nc(N[C@H](C)c3cccc(/C=C/C4CCCCC4)c3)c2cc1OC [Example 90, N-[(1R)-1-{3-[(E)-2-cyclohexylethenyl]phenyl}ethyl]-6,7-dimethoxy-2-methylquinazolin-4-amine]	11 µM			46%	33%
COc1cc2nc(C)nc(N[C@H](C)c3cccc(-c4ccccc4Oc4ccccc4)c3)c2cc1OC [Example 91, 6,7-dimethoxy-2-methyl-N-[(1R)-1-(2′-phenoxybiphenyl-3-yl)ethyl]quinazolin-4-amine]	15 µM			36%	38%
COc1cc2nc(C)nc(N[C@H](C)c3cccc(-c4ccc(NC(=O)OC(C)(C)C)cc4)c3)c2cc1OC [Example 92, tert-butyl (3′-{(1R)-1-[(6,7-dimethoxy-2-methylquinazolin-4-yl)amino]ethyl}biphenyl-4-yl)carbamate]	4.7 µM	3.67 µM	9.26 µM		
COc1cc2nc(C)nc(N[C@H](C)c3cccc(-c4cccc(/C=C/C#N)c4)c3)c2cc1OC [Example 93, (2E)-3-(3′-{(1R)-1-[(6,7-dimethoxy-2-methylquinazolin-4-yl)amino]ethyl}biphenyl-3-yl)prop-2-enenitrile]	1.85 µM	1.58 µM	2.89 µM		
COc1cc2nc(C)nc(N[C@H](C)c3cccc(-c4ccc(C)cc4C)c3)c2cc1OC [Example 94, N-[{1R)-1-(2′,4′-dimethylbiphenyl-3-yl)ethyl]-6,7-dimethoxy-2-methylquinazolin-4-amine]	2.42 µM	3.14 µM	4.28 µM		
COc1cc2nc(C)nc(N[C@H](C)c3cccc(-c4ccc(C(C)=O)s4)c3)c2cc1OC [Example 95, 1-[5-(3-{(1R)-1-[(6,7-dimethoxy-2-methylquinazolin-4-yl)amino]ethyl}phenyl)thiophen-2-yl]ethanone]	0.801 µM	0.473 µM	1.08 µM		
COc1cc2nc(C)nc(N[C@H](C)c3cccc(-c4ccc5c(c4)OCO5)c3)c2cc1OC [Example 96, N-{(1R)-1-[3-(1,3-benzodioxol-5-yl)phenyl]ethyl}-6,7-dimethoxy-2-methylquinazolin-4-amine]	1.04 µM	1.09 µM	1.39 µM		
